Results on 1 compound are retold here after patent publication US10202391B2, “Chemical compounds” (AstraZeneca AB, priority 2015, dated 2019).

In general, IC50 refers to the concentration that gives 50% inhibition.

The target of one experiment is T1, ERK2 (Homo sapiens, UniProt P28482).
T1 construct: made in house
The experiment is described as follows: ERK2 Rapidfire Mass Spectrometry Inhibition of Catalysis Assay. Format: biochemical. To be noted: 1.2 nM ERK2, 16 μM Erktide, 120 μM ATP (measured Km), 15 minute pre-incubation; read-out: ERK2 Mass Spectrometry Enzyme IC50. In short, it runs like this:
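In-house MEK-activated ERK2 (1.2 nM) in 50 mM Tris pH 7.5, 10 mM MgCl2, 0.1 mM EGTA, 10 mM DTT, 0.01% CHAPS; 12-point dose range 10–0.0000125 μM, 1% DMSO. Reaction 20 min at room temperature, formic acid quench; Erktide and phospho-Erktide measured by RapidFire mass spectrometry to give IC50.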

The subject of experiment [1] is panel of cancer cell lines with KRAS mutations. Put plainly: Cell growth inhibition, monotherapy, panel of KRAS mutant lines. Format: cell-based, human. The note with it: A549, H2122, H2009, Calu6; 3 days of treatment. The source says:
A549 is a human non small cell lung cancer line carrying an oncogenic mutation in the KRAS gene (G12S). H2122 is a human non small cell lung cancer line carrying an oncogenic mutation in the KRAS gene (G12C). H2009 is a human non small cell lung cancer line carrying an oncogenic mutation in the KRAS gene (G12A). Calu6 is a human non small cell lung cancer line carrying mutation in the KRAS ([…]) gene. All cell lines were obtained from the American Type Culture Collection.
All cell line were maintained at 37° C. and 5% CO2 in a humidified atmosphere and grown in RPMI-1640 growth media supplemented with 10% FBS and 2 mmol/L glutamine. […]
Cells were seeded in 384-well black, clear bottomed plates (Greiner Bio-One, Stonehouse, UK), cultured for 18-24 hours and treated with increasing concentrations of Example 18 and selumetinib (0-10 μmol/L) in a 6×6 dosing matrix. […] After 3 days of treatment, live cell number was determined using a Sytox Green endpoint as described previously (“Davies B R, Greenwood H, Dudley P, et al: Preclinical pharmacology of AZD5363, an inhibitor of AKT: Pharmacodynamics, antitumor activity, and correlation of monotherapy activity with genetic background. Mol Cancer Ther 11(4):873-87, 2012”). […] Cells were then permeabilised by the overnight addition of saponin (0.03% final concentration, diluted in TBS-EDTA buffer) and a total cell count measured. […]

T1 sequence (P28482 whole entry): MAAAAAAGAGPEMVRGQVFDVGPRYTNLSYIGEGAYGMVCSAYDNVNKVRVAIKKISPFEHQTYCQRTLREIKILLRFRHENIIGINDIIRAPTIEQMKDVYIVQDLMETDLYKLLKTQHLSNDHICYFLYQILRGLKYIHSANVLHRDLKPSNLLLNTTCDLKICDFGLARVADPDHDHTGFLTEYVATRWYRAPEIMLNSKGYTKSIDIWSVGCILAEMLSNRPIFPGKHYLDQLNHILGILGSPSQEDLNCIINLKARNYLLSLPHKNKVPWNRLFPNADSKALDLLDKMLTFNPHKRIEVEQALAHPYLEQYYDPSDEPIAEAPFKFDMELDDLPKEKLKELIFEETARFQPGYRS

Regarding `COC[C@H]1Cn2cc(-c3nc(Nc4ccnn4C)ncc3C)nc2C(=O)N1Cc1ccc(F)c(F)c1` [Example 18, (R)-7-(3,4-Difluorobenzyl)-6-(methoxymethyl)-2-(5-methyl-2-((1-methyl-1H-pyrazol-5-yl)amino)pyrimidin-4-yl)-6,7-dihydroimidazo[1,2-a]pyrazin-8(5H)-one], the IC50 at ERK2 worked out at 0.6 nM. Further, the “cell growth inhibition as monotherapy” value in experiment [1] is “can inhibit the growth of a panel of cancer cell lines with KRAS mutations as a monotherapy”.
